Reference: PubChem BioAssay (NCI)
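Five concentrations, 48 hours, 96-well plates. TGI: concentration producing complete growth inhibition.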

Assays:
Assay in all cases: NCI tumour cell line growth inhibition, 48 h
786-0 renal = tested on: 786-0 renal
A498 renal = tested on: A498 renal
A549 NSCLC = tested on: A549 NSCLC
ACHN renal = tested on: ACHN renal
BT-549 breast = tested on: BT-549 breast
CAKI-1 renal = tested on: CAKI-1 renal
CCRF-CEM leukemia = tested on: CCRF-CEM leukemia
COLO 205 colon = tested on: COLO 205 colon
DU-145 prostate = tested on: DU-145 prostate
EKVX NSCLC = tested on: EKVX NSCLC
HCT-116 colon = tested on: HCT-116 colon
HCT-15 colon = tested on: HCT-15 colon
HOP-62 NSCLC = tested on: HOP-62 NSCLC
HOP-92 NSCLC = tested on: HOP-92 NSCLC
HS 578T breast = tested on: HS 578T breast
HT29 colon = tested on: HT29 colon
IGROV1 ovarian = tested on: IGROV1 ovarian
KM12 colon = tested on: KM12 colon
LOX IMVI melanoma = tested on: LOX IMVI melanoma
M14 melanoma = tested on: M14 melanoma
MALME-3M melanoma = tested on: MALME-3M melanoma
MCF7 breast = tested on: MCF7 breast
MDA-MB-231 breast = tested on: MDA-MB-231 breast
MDA-MB-435 = tested on: MDA-MB-435
MDA-N = tested on: MDA-N
MOLT-4 leukemia = tested on: MOLT-4 leukemia
NCI-H226 lung = tested on: NCI-H226 lung
NCI-H23 lung = tested on: NCI-H23 lung
NCI-H460 lung = tested on: NCI-H460 lung
NCI-H522 lung = tested on: NCI-H522 lung
NCI/ADR-RES ovarian = tested on: NCI/ADR-RES ovarian
OVCAR-3 ovarian = tested on: OVCAR-3 ovarian
OVCAR-4 ovarian = tested on: OVCAR-4 ovarian
OVCAR-5 ovarian = tested on: OVCAR-5 ovarian
OVCAR-8 ovarian = tested on: OVCAR-8 ovarian
PC-3 prostate = tested on: PC-3 prostate
RPMI-8226 leukemia = tested on: RPMI-8226 leukemia
RXF 393 renal = tested on: RXF 393 renal
SF-268 CNS = tested on: SF-268 CNS
SF-295 CNS = tested on: SF-295 CNS
SF-539 CNS = tested on: SF-539 CNS
SK-MEL-2 melanoma = tested on: SK-MEL-2 melanoma
SK-MEL-28 melanoma = tested on: SK-MEL-28 melanoma
SK-MEL-5 melanoma = tested on: SK-MEL-5 melanoma
SK-OV-3 ovarian = tested on: SK-OV-3 ovarian
SN12C renal = tested on: SN12C renal
SNB-19 CNS = tested on: SNB-19 CNS
SNB-75 CNS = tested on: SNB-75 CNS
SR leukemia = tested on: SR leukemia
SW-620 colon = tested on: SW-620 colon
T-47D breast = tested on: T-47D breast
TK-10 renal = tested on: TK-10 renal
U251 CNS = tested on: U251 CNS
UACC-257 melanoma = tested on: UACC-257 melanoma
UACC-62 melanoma = tested on: UACC-62 melanoma
UO-31 renal = tested on: UO-31 renal
HCC-2998 colon = tested on: HCC-2998 colon
HL-60(TB) leukemia = tested on: HL-60(TB) leukemia
K-562 leukemia = tested on: K-562 leukemia

## O=C(O)C1CCCCC1C(=O)Nc1nc2ccccc2[nH]1 (stereo not given)
786-0 renal
  TGI: > 100 µM
A498 renal
  TGI: > 100 µM
A549 NSCLC
  TGI: > 100 µM
ACHN renal
  TGI: > 100 µM
BT-549 breast
  TGI: > 100 µM
CAKI-1 renal
  TGI: > 100 µM
CCRF-CEM leukemia
  TGI: > 100 µM
COLO 205 colon
  TGI: > 100 µM
DU-145 prostate
  TGI: > 100 µM
EKVX NSCLC
  TGI: > 100 µM
HCT-116 colon
  TGI: > 100 µM
HCT-15 colon
  TGI: > 100 µM
HOP-62 NSCLC
  TGI: > 100 µM
HOP-92 NSCLC
  TGI: > 100 µM
HS 578T breast
  TGI: > 100 µM
HT29 colon
  TGI: > 100 µM
IGROV1 ovarian
  TGI: > 100 µM
KM12 colon
  TGI: > 100 µM
LOX IMVI melanoma
  TGI: > 100 µM
M14 melanoma
  TGI: > 100 µM
MALME-3M melanoma
  TGI: > 100 µM
MCF7 breast
  TGI: > 100 µM
MDA-MB-231 breast
  TGI: > 100 µM
MDA-MB-435
  TGI: > 100 µM
MDA-N
  TGI: > 100 µM
MOLT-4 leukemia
  TGI: > 100 µM
NCI-H226 lung
  TGI: > 100 µM
NCI-H23 lung
  TGI: > 100 µM
NCI-H460 lung
  TGI: > 100 µM
NCI-H522 lung
  TGI: > 100 µM
NCI/ADR-RES ovarian
  TGI: > 100 µM
OVCAR-3 ovarian
  TGI: > 100 µM
OVCAR-4 ovarian
  TGI: > 100 µM
OVCAR-5 ovarian
  TGI: > 100 µM
OVCAR-8 ovarian
  TGI: > 100 µM
PC-3 prostate
  TGI: > 100 µM
RPMI-8226 leukemia
  TGI: > 100 µM
RXF 393 renal
  TGI: > 100 µM
SF-268 CNS
  TGI: > 100 µM
SF-295 CNS
  TGI: > 100 µM
SF-539 CNS
  TGI: > 100 µM
SK-MEL-2 melanoma
  TGI: > 100 µM
SK-MEL-28 melanoma
  TGI: > 100 µM
SK-MEL-5 melanoma
  TGI: > 100 µM
SK-OV-3 ovarian
  TGI: > 100 µM
SN12C renal
  TGI: > 100 µM
SNB-19 CNS
  TGI: > 100 µM
SNB-75 CNS
  TGI: > 100 µM
SR leukemia
  TGI: > 100 µM
SW-620 colon
  TGI: > 100 µM
T-47D breast
  TGI: > 100 µM
TK-10 renal
  TGI: > 100 µM
U251 CNS
  TGI: > 100 µM
UACC-257 melanoma
  TGI: > 100 µM
UACC-62 melanoma
  TGI: > 100 µM
UO-31 renal
  TGI: > 100 µM

## O=C1C=C(NCCc2cc(Cl)c(O)c(Cl)c2)C(=O)c2[nH]cnc21
786-0 renal
  TGI: > 100 µM
A498 renal
  TGI: > 100 µM
A549 NSCLC
  TGI: > 100 µM
ACHN renal
  TGI: > 100 µM
BT-549 breast
  TGI: > 100 µM
COLO 205 colon
  TGI: 52.7 µM
EKVX NSCLC
  TGI: > 100 µM
HCC-2998 colon
  TGI: > 100 µM
HCT-116 colon
  TGI: > 100 µM
HCT-15 colon
  TGI: > 100 µM
HL-60(TB) leukemia
  TGI: 32.9 µM
HOP-62 NSCLC
  TGI: > 100 µM
HS 578T breast
  TGI: > 100 µM
HT29 colon
  TGI: > 100 µM
IGROV1 ovarian
  TGI: 38.8 µM
K-562 leukemia
  TGI: 55.4 µM
KM12 colon
  TGI: > 100 µM
LOX IMVI melanoma
  TGI: > 100 µM
M14 melanoma
  TGI: 26.7 µM
MALME-3M melanoma
  TGI: 15.9 µM
MCF7 breast
  TGI: 64.8 µM
MDA-MB-231 breast
  TGI: > 100 µM
MDA-MB-435
  TGI: 30.3 µM
MDA-N
  TGI: 33.8 µM
MOLT-4 leukemia
  TGI: 67.5 µM
NCI-H23 lung
  TGI: 36.8 µM
NCI-H460 lung
  TGI: 68.3 µM
NCI-H522 lung
  TGI: 31.4 µM
NCI/ADR-RES ovarian
  TGI: > 100 µM
OVCAR-3 ovarian
  TGI: 47.2 µM
OVCAR-5 ovarian
  TGI: > 100 µM
OVCAR-8 ovarian
  TGI: > 100 µM
PC-3 prostate
  TGI: > 100 µM
RPMI-8226 leukemia
  TGI: > 100 µM
SF-295 CNS
  TGI: 45.6 µM
SF-539 CNS
  TGI: > 100 µM
SK-MEL-2 melanoma
  TGI: 57.6 µM
SK-MEL-28 melanoma
  TGI: 65.9 µM
SK-MEL-5 melanoma
  TGI: 31.5 µM
SN12C renal
  TGI: > 100 µM
SNB-19 CNS
  TGI: > 100 µM
SR leukemia
  TGI: > 100 µM
SW-620 colon
  TGI: > 100 µM
T-47D breast
  TGI: 53.2 µM
TK-10 renal
  TGI: > 100 µM
U251 CNS
  TGI: > 100 µM
UACC-257 melanoma
  TGI: 60 µM
UACC-62 melanoma
  TGI: 41.1 µM
UO-31 renal
  TGI: > 100 µM
